In patent publication US20230203081A1, “LINCOSAMIDE ANTIBIOTICS AND USES THEREOF” (President and Fellows of Harvard College, priority 2020, published 2023):
≈ marks a conversion by molar mass, not a printed value.

Columns and labels:
Assay in all cases: microbe, parasite or virus in culture
Format in all cases: cell-based
S. aureus BAA 977 iErmA = conditions: Staphylococcus aureus
Summary of the method: (§1)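 Per CLSI, MICs by broth microdilution or agar dilution; strains other than streptococci and anaerobes were sub-cultured overnight at 35° C on blood agar, with a final broth inoculum of 5×10^5 CFU/mL.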

E. coli ΔTolC = conditions: Escherichia coli, E. coli ΔTolC
Summary of the method: as §1

S. aureus MP-549 msrA = conditions: Staphylococcus aureus, MP549MSRA
Summary of the method: as §1

E. coli armA = conditions: Escherichia coli, E. coli armA
Summary of the method: as §1

[1] = system: broad panel of different clinical isolates
Summary of the method: as §1

For CCC[C@@H]1C[C@@H](C(=O)N[C@@H]([C@H]2O[C@H](SC)[C@H](O)[C@@H](O)[C@H]2O)[C@H](C)Cl)N(C)C1 [Clindamycin, clindamycin, reference compound], the MIC (S. aureus BAA 977 iErmA; BAA977) was 0.12 µg/mL (≈ 0.282 µM), the MIC (S. aureus BAA 977 iErmA; BAA-977 / MRSA) was 0.125 µg/mL (≈ 0.294 µM) and the MIC (S. aureus BAA 977 iErmA; BAA-977 / MRSA, 24 h) was > 128 µg/mL. It also gave an MIC (E. coli ΔTolC) of 4 µg/mL (≈ 9.41 µM), an MIC (S. aureus MP-549 msrA; S. aureus MP-549 msrA) of 0.12 µg/mL (≈ 0.282 µM) and an MIC (S. aureus MP-549 msrA; S. aureus HAV#032, MP-549, MSR(A)) of 0.125 µg/mL (≈ 0.294 µM). For the same molecule, the MIC (E. coli armA) was > 128 µg/mL, the MIC ([1]; Acinetobacter baumannii, A. baumannii HAV#651, Clinical) was 128 µg/mL (≈ 301 µM) and the MIC ([1]; Acinetobacter baumannii, A. baumannii HAV#652 Clinical) was 128 µg/mL (≈ 301 µM). The MIC ([1]; Acinetobacter baumannii, A. baumannii HAV#653, Clinical) was 64 µg/mL (≈ 151 µM), the MIC ([1]; Acinetobacter baumannii, A. baumannii HAV#654, Clinical) was 64 µg/mL (≈ 151 µM) and the MIC ([1]; Acinetobacter baumannii, A. baumannii HAV#655, Clinical) was 128 µg/mL (≈ 301 µM). It also gave an MIC ([1]; Acinetobacter baumannii, A. baumannii HAV#656, Clinical) of 128 µg/mL (≈ 301 µM), an MIC ([1]; Acinetobacter baumannii, A. baumannii HAV#657, Clinical) of 128 µg/mL (≈ 301 µM) and an MIC ([1]; Acinetobacter baumannii, A. baumannii HAV#658, Clinical) of 64 µg/mL (≈ 151 µM). The MIC ([1]; Acinetobacter baumannii, A. baumannii HAV#659, Clinical) was 128 µg/mL (≈ 301 µM), the MIC ([1]; Acinetobacter baumannii, A. baumannii HAV#660, Clinical) was > 128 µg/mL and the MIC ([1]; Acinetobacter baumannii, A. baumannii HAV#661, Clinical) was 64 µg/mL (≈ 151 µM). The MIC ([1]; Acinetobacter baumannii, A. baumannii HAV#662, Clinical) was 64 µg/mL (≈ 151 µM), the MIC ([1]; Acinetobacter baumannii, A. baumannii HAV#663, Clinical) was 32 µg/mL (≈ 75.3 µM) and the MIC ([1]; Acinetobacter baumannii, A. baumannii HAV#664, Carbapenem R) was 128 µg/mL (≈ 301 µM). It also gave an MIC ([1]; Enterococcus faecalis, E. faecalis HAV#602, Clincal) of 16 µg/mL (≈ 37.6 µM), an MIC ([1]; Enterococcus faecalis, E. faecalis HAV#611, Line R & Vanco R) of 128 µg/mL (≈ 301 µM) and an MIC ([1]; Enterococcus faecalis, E. faecalis HAV#612, Line R) of 8 µg/mL (≈ 18.8 µM). For the same molecule, the MIC ([1]; Enterococcus faecalis, S. faecalis 5060, Line R & Vanco R) was 128 µg/mL (≈ 301 µM), the MIC ([1]; Enterococcus faecalis, S. faecalis 5074, Line R) was 8 µg/mL (≈ 18.8 µM) and the MIC ([1]; Enterococcus faecalis, VRE, E. faecalis HAV#251, Clinical VRE) was > 128 µg/mL. For the same molecule, the MIC ([1]; Enterococcus faecium, E. faecium HAV#317, Clinical) was 8 µg/mL (≈ 18.8 µM), the MIC ([1]; Enterococcus faecium, E. faecium HAV#327, Clinical) was 8 µg/mL (≈ 18.8 µM) and the MIC ([1]; Enterococcus faecium, E. faecium HAV#604, Clinical) was 8 µg/mL (≈ 18.8 µM). For the same molecule, the MIC ([1]; Enterococcus faecium, VRE, E. faecium HAV#318, VanA) was > 128 µg/mL, the MIC ([1]; Enterococcus faecium, VRE, E. faecium HAV#320, Clinical) was > 128 µg/mL and the MIC ([1]; Enterococcus faecium, VRE, E. faecium HAV#326, Clinical) was 8 µg/mL (≈ 18.8 µM). For the same molecule, the MIC ([1]; Escherichia coli, E. coli HAV#501, Clinical) was > 128 µg/mL, the MIC ([1]; Escherichia coli, E. coli HAV#503, Clinical) was 64 µg/mL (≈ 151 µM) and the MIC ([1]; Escherichia coli, E. coli HAV#511, Clinical) was 128 µg/mL (≈ 301 µM). The MIC ([1]; Escherichia coli, E. coli HAV#512, Clinical) was > 128 µg/mL, the MIC ([1]; Escherichia coli, E. coli HAV#513, Clinical) was > 128 µg/mL and the MIC ([1]; Escherichia coli, E. coli HAV#514, Clinical) was 128 µg/mL (≈ 301 µM). For the same molecule, the MIC ([1]; Escherichia coli, E. coli HAV#516, ESBL-producing) was 128 µg/mL (≈ 301 µM), the MIC ([1]; Haemophilus influenzae, ATCC9007, H. influenzae HAV#376, ATCC-9007) was 8 µg/mL (≈ 18.8 µM) and the MIC ([1]; Klebsiella pneumoniae, K. pneumoniae HAV#402, FQ-R) was > 128 µg/mL. The MIC ([1]; Klebsiella pneumoniae, K. pneumoniae HAV#404, Clinical) was 128 µg/mL (≈ 301 µM), the MIC ([1]; Klebsiella pneumoniae, K. pneumoniae HAV#405, Clinical) was > 128 µg/mL and the MIC ([1]; Klebsiella pneumoniae, K. pneumoniae HAV#406, Clinical) was > 128 µg/mL. The MIC ([1]; Klebsiella pneumoniae, K. pneumoniae HAV#407, Clinical) was > 128 µg/mL, the MIC ([1]; Klebsiella pneumoniae, K. pneumoniae HAV#408, Clinical) was > 128 µg/mL and the MIC ([1]; Klebsiella pneumoniae, K. pneumoniae HAV#409, ESBL-producing) was > 128 µg/mL. It also gave an MIC ([1]; Neisseria gonorrhoeae, N. gonorrhoeae HAV#701, Clinical) of 2 µg/mL (≈ 4.71 µM).
